The values that follow are results of earlier work, collected in US12611407B2, “Gastro-resistant high-strength formulation containing posaconazole” (Alfred E. Tiefenbacher (GmbH & Co. KG), priority 2020, dated 2026).

Experiment in series [1]: not given
This is another data set of the same source.

Molecules are shown by their SMILES.

As for `CC[C@@H]([C@H](C)O)n1ncn(-c2ccc(N3CCN(c4ccc(OC[C@@H]5CO[C@@](Cn6cncn6)(c6ccc(F)cc6F)C5)cc4)CC3)cc2)c1=O` [Posaconazole], the aqueous solubility result is listed as “low aqueous solubility”.

As for `CC[C@@H]([C@H](C)O)n1ncn(-c2ccc(N3CCN(c4ccc(OC[C@@H]5CO[C@@](Cn6cncn6)(c6ccc(F)cc6F)C5)cc4)CC3)cc2)c1=O` [form IV, posaconazole], the “water solubility compared with form I” value was “better water solubility”. The “stability in an aqueous suspension compared with form I” value in series [1] (aqueous suspension) is “better stability in an aqueous suspension”. Turning to `CC[C@@H]([C@H](C)O)n1ncn(-c2ccc(N3CCN(c4ccc(OC[C@@H]5CO[C@@](Cn6cncn6)(c6ccc(F)cc6F)C5)cc4)CC3)cc2)c1=O` [form Y, posaconazole], the “water solubility compared with form I” value is “better water solubility”. For the same compound, the “stability of the crystalline form” value in series [1] (normal storage conditions or specific stress conditions) was “as stable as form I”.
